Laboratory results: patent EP1506960B1, “Indole compounds as inhibitors of tubulin polymerisation for the treatment of angiogenesis-related disorders” (National Health Research Institutes, priority 2003, dated 2005)
Like-named read-outs stand apart in the source and are kept apart here.

What was measured:
KB-Vin10 = test: cells; settings: read-out: Cytotoxicity KB -Vin10
Procedure: (§1) Cell Growth Inhibition Assay: MCF-7 breast carcinoma cells were maintained in plastic dishes in DMEM medium supplemented with 10% fetal bovine serum. For in vitro treatment, tumor cells were seeded in […] of culture medium/well in 96-well plates to a final cell density of 6 x 10^3 cell/mL and incubated in a CO2 incubator at 37 °C for 24 h. The cells were treated with at least five different concentrations of a test indole compound, and incubated in a CO2 incubator at 37 °C for 72 h. The number of viable cells was estimated using MTS assay and absorbance was measured at 490 nm. Cytotoxicity of the test compounds was expressed in terms of IC50 values. The values presented represent averages of three independent experiments, each with duplicate samples.
(§2) Indole compounds were tested against several panels of drug-resistant cell lines. It is well known that several anti-mitotic agents, including vinca alkaloid (vincristine, vinblastine) and taxol, have been introduced in clinic to treat various human cancers. […] The mechanisms responsible for taxol resistance include overexpression of p-glycoprotein and mutation of tubulin.
(§3) The mechanisms responsible for VP16-resistance (KB7D) were down-regulation of topoisomerase II and overexpression of MRP 1.

KB7D = test: cells; settings: Homo sapiens, 72 h, read-out: Cytotoxicity KB7D
Procedure: as §1, §2, §3

KB = test: Cell growth inhibition assay (cytotoxicity), KB cell line; settings: Homo sapiens, 72 h, read-out: Cytotoxicity KB
Procedure: as §1, §2, §3

KB100 = test: Cell growth inhibition assay on drug-resistant line KB100; settings: Homo sapiens, 72 h, read-out: Cytotoxicity KB100
Procedure: as §1, §2, §3

HONECis-6 = test: Cell growth inhibition assay on drug-resistant line HONECis-6; settings: read-out: Cytotoxicity HONECis -6, 72 h
Procedure: as §1, §2, §3

HONE-1 = test: Cell growth inhibition assay (cytotoxicity), HONE-1 cell line; settings: Homo sapiens, HONE1, 72 h
KB100R = test: Cell growth inhibition assay on line KB100R; settings: Homo sapiens, 72 h, read-out: Cytotoxicity KB100R
Procedure: as §1, §2, §3

Human MKN45 cancer cells = test: Tumor regression model, MKN45 xenograft; assay type: in vivo, Male CD 1 nude mice
Procedure: (§4) Tumor Regression Models: The procedures of cancer cell implantation were similar to those previously reported in Chen et al., Cancer Res., (1998) 58:2777-2783, with modifications. Male CD 1 nude mice (5~6 weeks old) were purchased from Charles River Laboratories (Wilmington, MA, USA). Human MKN45 and KB cancer cells were maintained in RPMI 1640 plus 10% fetal bovine serum. Each animal was subcutaneously implanted with 5×10^5 MKN45 or 1×10^6 KB cells in 0.1 ml at one flank. Tumor growth was examined three times a week after implantation. The volume of tumor was measured with a caliper and calculated as 1/2×length×width^2 in mm^3. Test compounds were dissolved completely in a vehicle mixture of dimethyl sulfoxide:cremophor:saline (1:4:15). When the size of a growing tumor reached approximately 100 mm^3, the mice were treated with test compounds intravenously from tail veins at a concentration of 50 mg/kg daily for two weeks. Mice in a control group were treated with the solvent vehicle only. Tumor sizes and body weights were measured twice a week and after the mice were sacrificed.

Human KB cancer cells = test: Tumor regression model, KB xenograft; assay type: in vivo, Male CD 1 nude mice; settings: Compound 1 and cisplatin together vs cisplatin alone
Procedure: as §4

[1] = system: MESSA/DX5 uterine cell line; test: Cell growth inhibition assay (cytotoxicity), MESSA/DX5; assay type: cell-based; settings: Homo sapiens, MES-SA/Dx5, Table 2, MTS, 72 h
Procedure: (§5) In addition, indole compounds described in the "Summary" section were also tested on the A549 lung cell line, MESSA uterine cell line, MKN45 stomach cell line, SW480 colon cell line, NUGC3 stomach cell line, and MESSA/DX5 uterine cell line.

[2] = system: MCF-7 breast carcinoma cells; test: Cell growth inhibition assay (cytotoxicity), MCF7; assay type: cell-based; settings: Homo sapiens, Table 2, MTS, 72 h
Procedure: In one assay, an indole compound is tested for its cytotoxicity on MCF-7 cells (a breast carcinoma cell line). More specifically, cells are incubated with a test compound for 24 hr. The cytotoxic effect can be determined using the MTS (3-(4,5-dimethylthiazol-2-yl)-5-(3-carboxymethoxyphenyl)-2-(4-sulfophenyl)-2H-tetrazolium, inner salt) assay method described in Goodwin et al. (1995, J. Immunol. Methods. 179: 95-103). Cytotoxicity of the test compound is expressed in terms of IC50 values (i.e., the concentration of the test compound which achieves a half-maximal inhibition of cell growth).

MKN45 stomach cell line = test: Cell growth inhibition assay (cytotoxicity), MKN45; assay type: cell-based; settings: Homo sapiens, MKN-45, Table 2, MTS, 72 h
Procedure: as §5

MESSA uterine cell line = test: Cell growth inhibition assay (cytotoxicity), MESSA; assay type: cell-based; settings: Homo sapiens, MES-SA, Table 2, MTS, 72 h
Procedure: as §5

A549 lung cell line = test: Cell growth inhibition assay (cytotoxicity), A549; assay type: cell-based; settings: Homo sapiens, Table 2, MTS, 72 h
Procedure: as §5

KB7DR = test: Cell growth inhibition assay on line KB7DR; settings: Homo sapiens, 72 h, read-out: Cytotoxicity KB7DR
Procedure: as §1, §2, §3

KBtaxol-5 = test: Cell growth inhibition assay on drug-resistant line KBtaxol-5; settings: Homo sapiens, 72 h, read-out: Cytotoxicity KBtaxol -5
Procedure: as §1, §2, §3

NUGC = test: Cell growth inhibition assay (cytotoxicity), NUGC; assay type: cell-based; settings: Homo sapiens, Table 2, Stomach, MTS, 72 h
Procedure: as §5

SW480 colon cell line = test: Cell growth inhibition assay (cytotoxicity), SW480; assay type: cell-based; settings: Homo sapiens, Table 2, MTS, 72 h
Procedure: as §5

SMILES | IC50 (KB-Vin10; Homo sapiens, KB-VIN10, 72 h) [nM] | IC50 (KB7D) [nM] | IC50 (KB) [nM] | IC50 (KB100) [nM] | IC50 (HONE-1; read-out: Cytotoxicity HONE -1) [nM] | IC50 (HONECis-6; Homo sapiens) [nM] | IC50 (KB7DR) [nM] | IC50 (KBtaxol-5) [nM] | also measured
CC[C@@]1(O)C(=O)OCc2c1cc1n(c2=O)Cc2cc3ccccc3nc2-1 [CPT, camptothecin] | 400 | 133 | 26 | 1290 | – | – | – | – | –
N.N.[Cl][Pt][Cl] [Cisplatin, reference compound] | – | – | – | – | – | – | – | – | IC50 (HONECis-6; Table 1, Cis Res., MTS): 15000 nM; IC50 (KB-Vin10; Table 1, Vin. Res, MTS, 72 h): 5 nM
COc1ccc2c(C(=O)c3cc(OC)c(OC)c(OC)c3)c[nH]c2c1 [Compound 1, (6-methoxy-1H-indol-3-yl)-(3,4,5-trimethoxy-phenyl)-methanone] | 7 | 4 | 6 | 8 | 4 | 4.5 | 6 | 7 | IC50 (HONE-1; read-out: Cytotoxicity HONE-1): 4 nM; IC50 (KB100R): 12 nM; activity in inhibiting tumor growth, administered together with cisplatin (Human MKN45 cancer cells; Compound 1 and cisplatin together vs cisplatin alone): higher activity in inhibiting tumor growth than cisplatin administered alone; activity in inhibiting tumor growth (Human MKN45 cancer cells; intravenously 50 mg/kg daily for two weeks, compared with cisplatin): higher activity in inhibiting tumor growth than cisplatin; activity in inhibiting tumor growth, administered together with cisplatin (Human KB cancer cells): higher activity in inhibiting tumor growth than cisplatin administered alone; IC50 [1]: 3.8 nM; IC50 [2]: 7.6 nM; IC50 (MKN45 stomach cell line): 4 nM; IC50 (MESSA uterine cell line): 7 nM; IC50 (A549 lung cell line): 17 nM; IC50 (NUGC): 3 nM; IC50 (SW480 colon cell line): 3 nM
COc1ccc2c(C(=O)c3cc(OC)c(OC)c(OC)c3)cn(C(=O)OC(C)(C)C)c2c1 [Compound 6, 6-methoxy-3-(3,4,5-trimethoxy-benzoyl)-indole-1-carboxylic acid tert-butyl ester] | 9.6 | 8 | 13 | 18 | 19 | 19 | 15 | 37 | IC50 (KB100R): 18 nM
CC(=O)O[C@H]1C(=O)[C@@]2(C)[C@H]([C@H](OC(=O)c3ccccc3)[C@]3(O)C[C@H](OC(=O)[C@H](O)[C@@H](NC(=O)c4ccccc4)c4ccccc4)C(C)=C1C3(C)C)[C@]1(OC(C)=O)CO[C@@H]1C[C@@H]2O [Taxol, paclitaxel, reference compound] | – | – | 10 | – | – | – | – | 80 | –
COc1cc([C@@H]2c3cc4c(cc3[C@@H](O[C@@H]3O[C@@H]5CO[C@@H](C)O[C@H]5[C@H](O)[C@H]3O)[C@H]3COC(=O)[C@H]23)OCO4)cc(OC)c1O [VP-16] | – | 44000 | 500 | – | – | – | 3500 | – | –
CC[C@]1(O)C[C@H]2CN(CCc3c([nH]c4ccccc34)[C@@](C(=O)OC)(c3cc4c(cc3OC)N(C=O)[C@H]3[C@@](O)(C(=O)OC)[C@H](OC(C)=O)[C@]5(CC)C=CCN6CC[C@]43[C@@H]65)C2)C1 [Vincristine, reference compound] | 43 | 1920 | 1 | – | 0.5 | 0.6 | 337 | – | –
